# Reference: patent US20130259807A1, “CELL CULTURE SCREEN FOR AGENTS THAT CONTROL ADIPOGENESIS AND MYOFIBROBLAST DIFFERENTIATION” (THE REGENTS OF THE UNIVERSITY OF CALIFORNIA, priority 2010, published 2013)
# Test system: rat mesenchymal stem cells
# Test: Culture screening adipogenesis assay (lipid accumulation, Oil Red O / BODIPY)
# Format: cell-based
# Conditions: insulin in the progressing medium, positive control set as 100%
# Experimental: To prepare adipogenesis initiation/priming medium, a IBMX standard solution ([…]) is diluted 1:1000 and a dexamethasone standard solution (1 μM dexamethasone standard solution (in DMSO)) is diluted 1:10,000 in DMEM+10% FCS. A typical cocktail of antibiotics can be added to restrict microbe growth. This initiation medium can be stored for up to 6 weeks at 4° C.
# To prepare positive control progression medium, a standard insulin solution (10 μg/ml insulin) is diluted 1:1000 in DMEM+10% FCS. Antibiotics of choice are added to control growth of microbes. This control progression medium can be stored for up to 6 weeks at 4° C.
# To prepare experimental/test (e.g., RHAMM blocking or other experimental adipogenic promoting reagent) progression medium, test agents are provided in a standard solution (e.g. 0.001-10 μg RHAMM antibody, peptide mimetic(s), or other test agent(s)). The test agent solution is diluted to the desired concentration (e.g. 1 ng-10 μg RHAMM peptide) in DMEM+10% FCS. […]
# Cells for the adipogenesis screen can be plated as follows: The cells are trypsinized and then resuspended in 1 ml DMEM+10% CS to neutralize the trypsin. The cells are then counted. […]
# The dye can be extracted with methanol:ethanol (1:1) mixture and read oil red O at 520 nm using an ELISA plate reader or for BODIPY® using a fluorometer that detects FITC.
substance,measurement,value
insulin,Extent of lipid accumulation (Oil Red O at 520 nm),100%
